Laboratory results reported in ChEMBL document CHEMBL6153118, “Structure Optimization of Natural Product Catalpol to Obtain Novel and Potent Analogs against Heart Failure” (J Med Chem, 2025).
Calls of active or inactive are those of the source. The rule behind the calls is not given here.

What was measured:
CYP2C9 = CYP2C9 (Homo sapiens, UniProt P11712); assay: Inhibition of CYP2C9 in human liver microsomes preincubated for 10 mins followed by NADPH addition measured after 10 mins by LC/MS/MS analysis relative to control; type: ADME, Microsome; details: time 20 min
Mus musculus [1] = assay: Inhibition of cardiomyocyte hypertrophy in ISO-induced heart failure C57BL/6J mouse assessed as decrease in ratio of p-AKT to AKT levels in heart tissue administered orally daily for 14 days by Western blot analysis; type: functional, organism-based; details: dose 5-20 mg/kg/day, route po, time 14.0 day
H9c2 [2] = assay: Inhibition of cardiomyocyte hypertrophy in ISO-treated rat H9c2 cells at 50 uM preincubated for 12 hrs followed by ISO treatment for 36 hrs by FITC-Phalloidin staining based analysis; type: functional, cell-based; details: time 48.0 hrs
Mus musculus [3] = assay: Inhibition of cardiac fibrosis in ISO-induced heart failure C57BL/6J mouse at 5 to 20 mg/kg/day, po for 14 days; type: functional, organism-based; details: dose 5-20 mg/kg/day, time 14.0 day
H9c2 [4] = assay: Inhibition of apoptosis in ISO-treated rat H9c2 cells assessed as increase in Bcl-2 level by Western blot analysis; type: functional, cell-based; details: dose 5-50 µM
Mus musculus [5] = assay: Inhibition of cardiomyocyte hypertrophy in ISO-induced heart failure C57BL/6J mouse at 5 to 20 mg/kg/day, po for 14 days; type: functional, organism-based; details: dose 5-20 mg/kg/day, time 14.0 day
[6] = Tmax in C57/6J mouse at 5 mg/kg, iv measured for 24 hrs; type: ADME, organism-based; details: in vivo
H9c2 [7] = assay: Inhibition of cardiomyocyte hypertrophy in rat H9c2 cells assessed as decrease in ISO-induced ANP level at 50 uM by Western blot analysis; type: functional, cell-based
[8] = Cmax in C57/6J mouse at 20 mg/kg, po measured for 24 hrs; type: ADME, organism-based; details: in vivo
[9] = Toxicity in C57BL/6J mouse assessed as animal mortality at 400 mg/kg, po administered as single dose measured for 7 days; type: organism-based; details: in vivo, 168 h, time 7 day
[10] = Toxicity in C57BL/6J mouse assessed as change in relative organ weights at 400 mg/kg, po administered as single dose measured for 7 days; type: organism-based; details: in vivo, 168 h, time 7 day
[11] = Half life in C57/6J mouse at 20 mg/kg, po measured for 24 hrs; type: ADME, organism-based; details: in vivo
Mus musculus [12] = assay: Inhibition of cardiomyocyte hypertrophy in ISO-induced heart failure C57BL/6J mouse assessed as decrease in GSK-3beta phosphorylation in heart tissue administered orally daily for 14 days by Western blot analysis; type: functional, organism-based; details: dose 5-20 mg/kg/day, route po, time 14.0 day
[13] = Metabolic stability in human liver microsomes assessed as intrinsic clearance measured for 5 to 60 mins in presence of NADPH by LC-MS/MS analysis; type: ADME, Microsome; details: time 5-60 min, read-out: CLH
H9c2 [14] = assay: Cytoprotective activity against OGD-induced myocardial ischemic injury in rat H9c2 cells assessed as decrease in cell death at 5 to 50 uM preincubated for 12 hrs followed by exposure to OGD condition for 3 hrs by crystal violet staining based analysis; type: functional; details: dose 5-50 µM, time 15.0 hrs
CYP2D6 = CYP2D6 (Homo sapiens, UniProt P10635); assay: Inhibition of CYP2D6 in human liver microsomes preincubated for 10 mins followed by NADPH addition measured after 10 mins by LC/MS/MS analysis relative to control; type: ADME, Microsome; details: time 20 min
[15] = biological target: Voltage-gated inwardly rectifying potassium channel KCNH2 (Homo sapiens, UniProt Q12809); assay: Inhibition of hERG at 30 uM; type: toxicity
[16] = Metabolic stability in human liver microsomes assessed as half life measured for 5 to 60 mins in presence of NADPH by LC-MS/MS analysis; type: ADME, Microsome; details: time 5-60 min
H9c2 [17] = assay: Cytoprotective activity against OGD-induced myocardial ischemic injury in rat H9c2 cells assessed as cell viability at 5 uM preincubated for 12 hrs followed by exposure to OGD condition for 3 hrs by CCK8 assay (reference value: 49.23 to 50.05 %); type: functional; details: time 15 hrs, read-out: Activity
H9c2 [18] = assay: Cytoprotective activity against OGD-induced myocardial ischemic injury in rat H9c2 cells assessed as decrease in ROS level at 5 to 50 uM preincubated for 12 hrs followed by exposure to OGD condition for 3 hrs by DCFH-DA probe based analysis; type: functional, cell-based; details: dose 5-50 µM, time 15.0 hrs
H9c2 [19] = assay: Inhibition of apoptosis in ISO-treated rat H9c2 cells assessed as decrease in Bax level by Western blot analysis; type: functional, cell-based; details: dose 5-50 µM
[20] = MRT (0 to t) in C57/6J mouse at 20 mg/kg, po measured for 24 hrs; type: ADME, organism-based; details: in vivo
[21] = Tmax in C57/6J mouse at 20 mg/kg, po measured for 24 hrs; type: ADME, organism-based; details: in vivo
Mus musculus [22] = assay: Inhibition of cardiomyocyte hypertrophy in ISO-induced heart failure C57BL/6J mouse assessed as decrease in AKT phosphorylation in heart tissue administered orally daily for 14 days by Western blot analysis; type: functional, organism-based; details: dose 5-20 mg/kg/day, route po, time 14.0 day
[23] = AUC (0 to t) in C57/6J mouse at 5 mg/kg, iv measured for 24 hrs; type: ADME, organism-based; details: in vivo
CYP2C19 = CYP2C19 (Homo sapiens, UniProt P33261); assay: Inhibition of CYP2C19 in human liver microsomes preincubated for 10 mins followed by NADPH addition measured after 10 mins by LC/MS/MS analysis relative to control; type: ADME, Microsome; details: time 20 min
[24] = Toxicity in C57BL/6J mouse assessed as signs of morbidity at 400 mg/kg, po administered as single dose measured for 7 days; type: organism-based; details: in vivo, 168 h, time 7 day
Cardiac muscle cell = assay: Cytoprotective activity against OGD-induced myocardial ischemic injury in neonatal rat primary cardiomyocytes assessed as decrease in cellular damage at 1 uM preincubated for 12 hrs followed by exposure to OGD condition for 3 hrs; type: functional, cell-based; details: time 15.0 hrs
Mus musculus [25] = assay: Inhibition of cardiomyocyte hypertrophy in ISO-induced heart failure C57BL/6J mouse assessed as decrease in PI3K phosphorylation in heart tissue administered orally daily for 14 days by Western blot analysis; type: functional, organism-based; details: dose 5-20 mg/kg/day, route po, time 14.0 day
[26] = Cmax in C57/6J mouse at 5 mg/kg, iv measured for 24 hrs; type: ADME, organism-based; details: in vivo
Mus musculus [27] = assay: Inhibition of cardiomyocyte hypertrophy in ISO-induced heart failure C57BL/6J mouse assessed as decrease in ANP level administered orally daily for 14 days by Western blot analysis; type: functional, organism-based; details: dose 5-20 mg/kg/day, route po, time 14.0 day
Mus musculus [28] = assay: Inhibition of cardiomyocyte hypertrophy in ISO-induced heart failure C57BL/6J mouse assessed as decrease in ratio of p-PI3K to PI3K levels in heart tissue administered orally daily for 14 days by Western blot analysis; type: functional, organism-based; details: dose 5-20 mg/kg/day, route po, time 14.0 day
H9c2 [29] = assay: Cytoprotective activity against OGD-induced myocardial ischemic injury in rat H9c2 cells assessed as decrease in LDH level at 5 to 50 uM preincubated for 12 hrs followed by exposure to OGD condition for 3 hrs by UV absorption analysis; type: functional, cell-based; details: dose 5-50 µM, time 15.0 hrs

CYP2C19, sequence (P33261 whole entry): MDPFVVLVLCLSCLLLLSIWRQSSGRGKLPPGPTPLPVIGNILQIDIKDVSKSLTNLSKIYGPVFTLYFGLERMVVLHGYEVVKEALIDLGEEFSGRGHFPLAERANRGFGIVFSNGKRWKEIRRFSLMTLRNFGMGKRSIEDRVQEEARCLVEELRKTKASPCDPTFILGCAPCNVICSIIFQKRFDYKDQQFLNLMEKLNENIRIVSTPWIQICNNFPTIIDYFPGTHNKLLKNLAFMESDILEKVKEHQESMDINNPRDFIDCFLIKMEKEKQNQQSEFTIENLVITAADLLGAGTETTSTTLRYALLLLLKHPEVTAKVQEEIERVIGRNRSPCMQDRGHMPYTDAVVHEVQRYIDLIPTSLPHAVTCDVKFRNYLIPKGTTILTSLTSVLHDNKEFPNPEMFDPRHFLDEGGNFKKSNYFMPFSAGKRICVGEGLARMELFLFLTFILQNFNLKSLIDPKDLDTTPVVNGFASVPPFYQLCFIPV
CYP2C9, sequence (P11712 whole entry): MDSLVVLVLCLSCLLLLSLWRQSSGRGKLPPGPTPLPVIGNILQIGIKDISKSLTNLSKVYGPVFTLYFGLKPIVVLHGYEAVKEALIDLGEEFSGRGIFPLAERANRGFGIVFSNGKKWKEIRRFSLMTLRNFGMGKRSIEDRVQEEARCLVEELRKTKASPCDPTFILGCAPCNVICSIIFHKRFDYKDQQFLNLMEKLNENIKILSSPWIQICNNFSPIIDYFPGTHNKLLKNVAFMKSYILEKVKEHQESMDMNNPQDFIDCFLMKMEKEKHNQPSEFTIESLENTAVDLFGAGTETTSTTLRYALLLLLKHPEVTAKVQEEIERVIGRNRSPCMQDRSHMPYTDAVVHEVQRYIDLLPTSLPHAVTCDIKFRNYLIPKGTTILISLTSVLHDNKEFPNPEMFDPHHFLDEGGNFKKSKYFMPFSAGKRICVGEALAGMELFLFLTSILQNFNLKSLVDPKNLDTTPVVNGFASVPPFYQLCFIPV
CYP2D6, sequence (P10635 whole entry): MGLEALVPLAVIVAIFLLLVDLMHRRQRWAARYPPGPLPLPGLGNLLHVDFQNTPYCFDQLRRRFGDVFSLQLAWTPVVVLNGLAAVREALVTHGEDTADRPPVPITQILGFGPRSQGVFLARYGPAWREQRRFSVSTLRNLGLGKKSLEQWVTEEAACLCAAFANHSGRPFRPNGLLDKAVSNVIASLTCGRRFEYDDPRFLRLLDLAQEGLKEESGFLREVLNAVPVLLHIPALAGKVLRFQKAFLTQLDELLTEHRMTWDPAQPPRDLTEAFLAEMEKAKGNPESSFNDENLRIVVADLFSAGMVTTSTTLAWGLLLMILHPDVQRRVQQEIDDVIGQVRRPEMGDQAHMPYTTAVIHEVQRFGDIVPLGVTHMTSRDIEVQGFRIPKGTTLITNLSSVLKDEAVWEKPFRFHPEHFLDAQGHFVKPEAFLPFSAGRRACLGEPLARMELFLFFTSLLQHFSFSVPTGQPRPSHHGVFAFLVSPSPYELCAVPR
Voltage-gated inwardly rectifying potassium channel KCNH2, sequence (Q12809 whole entry): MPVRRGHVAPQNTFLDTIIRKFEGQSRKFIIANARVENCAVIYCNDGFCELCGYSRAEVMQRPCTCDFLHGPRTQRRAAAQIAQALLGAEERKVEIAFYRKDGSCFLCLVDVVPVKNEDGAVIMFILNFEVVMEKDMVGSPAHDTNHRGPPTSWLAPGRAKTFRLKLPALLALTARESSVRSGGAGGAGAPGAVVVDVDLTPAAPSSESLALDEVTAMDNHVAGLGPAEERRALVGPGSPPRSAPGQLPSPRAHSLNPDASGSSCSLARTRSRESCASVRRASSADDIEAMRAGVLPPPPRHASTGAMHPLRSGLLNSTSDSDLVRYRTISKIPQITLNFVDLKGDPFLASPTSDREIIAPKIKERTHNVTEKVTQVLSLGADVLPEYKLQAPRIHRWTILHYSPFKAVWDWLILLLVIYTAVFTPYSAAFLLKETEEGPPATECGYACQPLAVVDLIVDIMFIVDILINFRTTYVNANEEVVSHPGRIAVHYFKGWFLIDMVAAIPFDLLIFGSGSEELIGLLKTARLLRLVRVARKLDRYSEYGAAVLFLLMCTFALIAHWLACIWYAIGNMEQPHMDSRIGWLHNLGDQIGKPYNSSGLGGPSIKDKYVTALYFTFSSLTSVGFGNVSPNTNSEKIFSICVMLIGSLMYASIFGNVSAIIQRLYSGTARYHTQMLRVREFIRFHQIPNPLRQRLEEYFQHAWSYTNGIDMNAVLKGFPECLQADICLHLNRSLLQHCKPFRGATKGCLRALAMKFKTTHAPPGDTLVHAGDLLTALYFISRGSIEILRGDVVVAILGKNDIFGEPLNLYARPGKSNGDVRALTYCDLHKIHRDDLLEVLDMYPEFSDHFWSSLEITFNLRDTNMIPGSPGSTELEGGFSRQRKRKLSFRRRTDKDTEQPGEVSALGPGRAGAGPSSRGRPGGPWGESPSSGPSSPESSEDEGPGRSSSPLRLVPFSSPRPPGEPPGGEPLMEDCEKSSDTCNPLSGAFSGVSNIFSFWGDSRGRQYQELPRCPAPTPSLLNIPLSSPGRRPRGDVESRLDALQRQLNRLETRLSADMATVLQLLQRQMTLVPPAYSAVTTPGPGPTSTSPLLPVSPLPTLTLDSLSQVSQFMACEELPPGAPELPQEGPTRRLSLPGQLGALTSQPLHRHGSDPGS

## OC[C@H]1O[C@@H](O[C@@H]2OC=C[C@H]3[C@H](O)[C@@H]4O[C@]4(COc4ccc(C(F)(F)F)cc4)[C@@H]23)[C@H](O)[C@@H](O)[C@@H]1O
CYP2C9
  inhibition at 10 min: 6.3%
Mus musculus [1]
  inhibition: Dose-dependent-effect
H9c2 [2]
  inhibition: Active
Mus musculus [3]
  inhibition: Active
H9c2 [4]
  inhibition: Dose-dependent-effect
Mus musculus [5]
  inhibition: Active; Exhibited Pronounced Therapeutic Effect Compared To Catal-Pol
[6]
  Tmax: 4.98 min
H9c2 [7]
  inhibition: Active
[8]
  Cmax: 505 ng/mL
[9]
  Activity: Non-toxic
[10]
  Activity: Non-toxic
[11]
  half-life: 1.01 h
Mus musculus [12]
  inhibition: Dose-dependent-effect
[13]
  CLint scaled: < 8.6 mL/min/kg
H9c2 [14]
  Activity: Active; Exhibited Superior Protective Efficacy Than Catal-Pol
CYP2D6
  inhibition at 10 min: 4.3%
[15]
  inhibition (INH): Not_active
[16]
  half-life: > 2.42 h
H9c2 [17]
  viability at 5 µM: 64.6%
H9c2 [18]
  Activity: Active
H9c2 [19]
  inhibition: Dose-dependent-effect
[20]
  MRT last at 24 h: 2.43 h
[21]
  Tmax: 1.42 h
Mus musculus [22]
  inhibition: Dose-dependent-effect
[23]
  AUC(0-t) at 24 h: 1090 ng·h/mL
CYP2C19
  inhibition at 10 min: 10.2%
[24]
  Activity: Non-toxic
Cardiac muscle cell
  Activity: Active; Exhibited Moderate Effect
Mus musculus [25]
  inhibition: Dose-dependent-effect
[26]
  Cmax: 2710 ng/mL
Mus musculus [27]
  inhibition: Dose-dependent-effect; Restored Anp Level To Physiological Level
Mus musculus [28]
  inhibition: Dose-dependent-effect
H9c2 [29]
  Activity: Active
